Measured values taken from patent publication US4959368A, “Therapeutic agent for neurological diseases” (Mitsui Petrochemical Industries Ltd., priority 1986, dated 1990).
Like-named read-outs stand apart in the source and are kept apart here.

How the values were obtained:
[1] = tested on: mouse neuroblastoma cell line neuro-2a; experiment: Activity on neuro-2a, cells with outgrown neurites; assay type: cell-based
Procedure, shortened: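 Mouse neuro-2a cells in DMEM with FCS exposed to compounds for 24 h (up to 6 concentrations, triplicate runs), glutaraldehyde-fixed and methylene blue-stained. Proportion of cells bearing a neurite at least twice the cell's long diameter counted microscopically over ≥200 cells.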

[2] = Acute toxicity, mouse; assay type: in vivo; details: in vivo, po, read-out: Presumed LD50
Procedure: (§1) The acute toxicity of the compounds of the invention was examined by the following method.
(§2) Male ddy-strain 5-week old mice and male Wistar-strain 8 week old rats, five per group, were used as experimental animals. Each of the compounds was dissolved in saline and administered perorally, and the toxicity of the compound was assessed 24 hours after the administration.

[3] = tested on: mice; experiment: Acute toxicity, mouse; assay type: in vivo; details: 24 hours
Procedure: as §1, §2

[4] = Table 3 Run No. 2, 0.1 mM, control 1.9 ± 0.9

Structure (SMILES)	Cells having neurites with a length at least twice the long diameter of cell/total number of cells [1, 4] [%]	LD50 at 24 h ([2]; Table 6, p.o.) [mg/kg]	Number of dead animals/number of test animals ([3]; Table 6, 300 mg/kg p.o.)	Number of dead animals/number of test animals ([3]; Table 6, 500 mg/kg p.o.)	Number of dead animals/number of test animals ([3]; Table 6, 1000 mg/kg p.o.)	also measured
CCOC(=O)c1cnc(N2CCNCC2)nc1N [Compound 120]	10.2 ± 3.7	550 to 1000	0/5	1/5	4/5	Cells having neurites with a length at least twice the long diameter of cell/total number of cells ([1]; Table 3 Run No. 10, 0.003 mM, control 1.7 ± 0.7): 2.6 ± 0.6%; Cells having neurites with a length at least twice the long diameter of cell/total number of cells ([1]; Table 3 Run No. 10, 0.1 mM, control 1.7 ± 0.7): 6.5 ± 1.7%
CN1C(=O)Cc2cnc(N3CCNCC3)nc21 [Compound 406]	–	–	–	–	–	Cells having neurites with a length at least twice the long diameter of cell/total number of cells ([1]; Table 3 Run No. 4, 0.1 mM, control 3.1 ± 0.2): 16.2 ± 3.7%; Cells having neurites with a length at least twice the long diameter of cell/total number of cells ([1]; Table 3 Run No. 4, 0.3 mM, control 3.1 ± 0.2): 29.9 ± 2.6%; Cells having neurites with a length at least twice the long diameter of cell/total number of cells ([1]; Table 3 Run No. 4, 0.5 mM, control 3.1 ± 0.2): 44.8 ± 0.8%; Cells having neurites with a length at least twice the long diameter of cell/total number of cells ([1]; Table 3 Run No. 7, 0.1 mM, control 2.5 ± 0.7): 10.3 ± 1.6%; Cells having neurites with a length at least twice the long diameter of cell/total number of cells ([1]; Table 3 Run No. 7, 0.3 mM, control 2.5 ± 0.7): 22.6 ± 2.2%; Cells having neurites with a length at least twice the long diameter of cell/total number of cells ([1]; Table 3 Run No. 7, 0.5 mM, control 2.5 ± 0.7): 40.2 ± 3.4%; Cells having neurites with a length at least twice the long diameter of cell/total number of cells ([1]; Table 3 second Run No. 5, 0.03 mM, control 4.5 ± 0.3): 7.6 ± 1.8%; Cells having neurites with a length at least twice the long diameter of cell/total number of cells ([1]; Table 3 second Run No. 5, 0.3 mM, control 4.5 ± 0.3): 18.4 ± 3.0%; Cells having neurites with a length at least twice the long diameter of cell/total number of cells ([1]; Table 3 second Run No. 5, 0.5 mM, control 4.5 ± 0.3): 32.4 ± 4.3%; LD50 at 24 h ([2]; Table 7, p.o.): > 1000 mg/kg; Number of dead animals/number of test animals ([3]; Table 7, 1000 mg/kg p.o., 1000 mg/kg): 1/5
CCOC(=O)c1cnc(N2CCNCC2)nc1C(=O)OCC [Compound 144]	9.9 ± 1.5	550 to 1000	0/5	0/5	3/5	Cells having neurites with a length at least twice the long diameter of cell/total number of cells ([1]; Table 3 Run No. 2, 0.3 mM, control 1.9 ± 0.9): 19.4 ± 3.2%
CC(C)n1ccc2nc(N3CCNCC3)ncc2c1=O [Compound 713]	–	> 1000	0/5	0/5	2/5	–
CCCCOc1ccnc(N2CCNCC2)n1 [Compound 128]	–	300 to 550	0/5	3/5	4/5	Cells having neurites with a length at least twice the long diameter of cell/total number of cells ([1]; Table 3 Run No. 1, 0.028 μM, control 2.2 ± 0.8): 4.4 ± 0.7%; Cells having neurites with a length at least twice the long diameter of cell/total number of cells ([1]; Table 3 Run No. 1, 0.29 μM, control 2.2 ± 0.8): 3.4 ± 0.6%; Cells having neurites with a length at least twice the long diameter of cell/total number of cells ([1]; Table 3 Run No. 1, 28 μM, control 2.2 ± 0.8): 5.2 ± 0.9%
CCCn1ccc2nc(N3CCNCC3)ncc2c1=O [Compound 715]	–	550 to 1000	0/5	0/5	4/5	–
